Experimental data published in PubChem BioAssay (NCI).
Values joined by “and” are separate entries in the source; they are usually repeats but may differ in a detail not shown here. Identical values can stand only once.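 Exposure lasted 48 hours, with cells grown in 96-well plates and compounds tested at five concentrations. At the GI50, growth is halved. TGI denotes the concentration required for complete inhibition of growth.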

Legend:
Test in all cases: NCI tumour cell line growth inhibition, 48 h
[1] = tested on: MOLT-4 leukemia
[2] = tested on: MCF7 breast
[3] = tested on: DU-145 prostate
[4] = tested on: SW-620 colon
[5] = tested on: HOP-92 NSCLC
[6] = tested on: OVCAR-3 ovarian
[7] = tested on: SN12C renal
[8] = tested on: PC-3 prostate
[9] = tested on: HL-60(TB) leukemia
[10] = tested on: M14 melanoma

SMILES: Cc1nc(-c2nc(-c3ccc(OC(F)(F)F)cc3)no2)nn1Cc1cccc(N2CCC(S(C)(=O)=O)CC2)c1
- GI50 [1]: 3.3 µM
- TGI [1]: > 100 µM
- GI50 [2]: 0.0136 µM
- TGI [2]: 48.6 µM
- GI50 [3]: > 42.8 µM
- TGI [3]: > 100 µM
- GI50 [4]: > 46.9 µM
- TGI [4]: > 100 µM
- GI50 [5]: 28.9 µM
- TGI [5]: > 89 µM
- GI50 [6]: 11.6 µM
- TGI [6]: > 100 µM
- GI50 [7]: > 31.1 µM
- TGI [7]: > 100 µM
- GI50 [8]: 3.59 µM
- TGI [8]: 55.2 µM
- TGI [9]: > 49.5 µM
- GI50 [10]: 5.66 µM
- TGI [10]: > 100 µM

SMILES: N#Cc1c(N2CCOCC2)nc(=S)[nH]c1-c1ccccc1
- GI50 [1]: 10.7 µM
- TGI [1]: > 100 µM
- GI50 [2]: 4.89 µM
- TGI [2]: > 100 µM
- GI50 [3]: 31 µM
- TGI [3]: > 100 µM
- GI50 [4]: 74.2 µM
- TGI [4]: > 100 µM
- GI50 [5]: 3.94 µM
- TGI [5]: > 100 µM
- GI50 [6]: 16.9 µM
- TGI [6]: > 100 µM
- GI50 [7]: 19 µM
- TGI [7]: > 100 µM
- GI50 [8]: 2.1 µM
- TGI [8]: 8.79 µM
- GI50 [9]: 15.3 µM
- TGI [9]: > 100 µM
- GI50 [10]: 19.9 µM
- TGI [10]: > 100 µM

SMILES: O=[N+]([O-])c1ccc(C2=Nn3c(nnc3-c3ccc(Cl)cc3)SC2)o1
- TGI [1]: 8.59 µM
- TGI [2]: 4.05 µM
- TGI [3]: 39.6 µM
- TGI [4]: 5.85 µM
- TGI [5]: 8.31 µM
- TGI [6]: 10.6 µM
- TGI [7]: 23.1 µM
- TGI [8]: 18.4 µM
- TGI [9]: 6.28 µM
- TGI [10]: 14.3 µM

SMILES: O=C(O)C(C(=O)O)P(=S)(S)c1ccccc1 (stereo not given)
- TGI [1]: > 100 µM
- TGI [2]: > 100 µM
- TGI [3]: > 100 µM
- TGI [4]: > 100 µM
- TGI [5]: > 100 µM
- TGI [6]: > 100 µM
- TGI [7]: > 100 µM
- TGI [8]: > 100 µM
- TGI [9]: > 100 µM
- TGI [10]: > 100 µM

SMILES: C[C@@H](NC(=O)/C(C#N)=C/c1ccc([N+](=O)[O-])cc1)c1ccccc1
- GI50 [1]: 3.02 µM
- TGI [1]: 7.3 µM
- GI50 [2]: 2.41 µM
- TGI [2]: 7.65 µM
- GI50 [3]: 2.07 µM
- TGI [3]: 4.33 µM
- GI50 [4]: 1.83 µM
- TGI [4]: 3.81 µM
- GI50 [5]: 1.89 µM
- TGI [5]: 5.96 µM
- GI50 [6]: 2.39 µM
- TGI [6]: 5.65 µM
- GI50 [7]: 2.11 µM
- TGI [7]: 4.85 µM
- GI50 [8]: 2.34 µM
- TGI [8]: 6.65 µM
- GI50 [9]: 2.42 µM
- TGI [9]: 5.51 µM
- GI50 [10]: 2.05 µM
- TGI [10]: 4.42 µM

SMILES: O=C1NC2C(=CC(O)C(O)C2O)c2cc3c(cc21)OCO3 (stereo not given)
- GI50 [1]: 0.305 µM and 0.454 µM
- TGI [1]: 0.511 µM and 1.24 µM
- GI50 [2]: 0.0495 µM
- TGI [2]: 0.854 µM and 4.46 µM
- TGI [3]: 1.83 µM
- GI50 [4]: 0.412 µM and 0.199 µM
- TGI [4]: 4.07 µM and 19.9 µM
- GI50 [5]: 0.116 µM and 0.171 µM
- GI50 [6]: 0.441 µM
- TGI [6]: 2.36 µM and 1.42 µM
- GI50 [7]: 0.156 µM
- TGI [7]: 2.59 µM and 2.29 µM
- TGI [8]: 2.08 µM
- TGI [9]: 0.282 µM and 0.213 µM and 0.594 µM
- GI50 [10]: 0.424 µM
- TGI [10]: 1.41 µM

SMILES: CN(C)CCCCC(C(=O)CBr)(c1ccccc1)c1ccccc1
- GI50 [1]: 1.92 µM
- TGI [1]: 5.67 µM
- GI50 [2]: 1.5 µM
- TGI [2]: 3.25 µM
- GI50 [3]: 1.66 µM
- TGI [3]: 3.63 µM
- GI50 [4]: 1.67 µM
- TGI [4]: 5.58 µM
- GI50 [5]: 1.84 µM
- TGI [5]: 4.71 µM
- GI50 [6]: 1.37 µM
- TGI [6]: 2.69 µM
- GI50 [7]: 1.98 µM
- TGI [7]: 5.07 µM
- GI50 [8]: 2.71 µM
- TGI [8]: 9.58 µM
- GI50 [9]: 1.22 µM
- TGI [9]: 3.95 µM
- GI50 [10]: 1.5 µM
- TGI [10]: 3.95 µM

SMILES: NC(N)=NC(N)=Nc1cnccn1
- TGI [1]: > 100 µM
- TGI [2]: > 100 µM
- TGI [3]: > 100 µM
- TGI [4]: > 100 µM
- TGI [5]: > 100 µM
- TGI [6]: > 100 µM
- TGI [7]: > 100 µM
- TGI [8]: > 100 µM
- TGI [9]: > 100 µM
- TGI [10]: > 100 µM
